Legend:
[1] = test system: keratinocytes; assay: Differentiation of keratinocytes (western blotting of involucrin and keratin-1); assay type: cell-based; details: 10 μM, 48 hours, FIG. 2
Procedure: In order to evaluate the effect of the above compound according to the present invention upon differentiation of keratinocytes, each of K6PC4, K6PC-5, K6PC-7 and K6PC-9 was dissolved in DMSO at a concentration of 10 μM and used as sample. Evaluation was performed by using the western blotting method. As differentiation markers, involucrin and keratine-1, which were differentiation markers of keratinocytes, were measured. Next, 48 hours after the treatment of samples, the culture solution was discarded and the cells were washed with PBS and collected by filtering. The collected cells were washed again and subjected to centrifugal separation to remove supernatant. The cells were dissolved in a solvent and subjected to centrifugal separation at 12,000 rpm for 10 minutes, thereby removing cell membranes, etc. Protein concentration was determined by the Bradford method. Proteins were separated by mini gel type SDS-PAGE (polyacrylamide gel electrohoresis) and transferred to a PVDF (polyvinylidene fluoride) membrane at 100V for 1 hour, so that gel-like proteins were subjected to blotting with a transfer membrane. Then, the membrane was colored with Ponceau S solution to determine whether transfer was accomplished or not. The membrane was blocked by using TTBS (TBS+0.1% Tween 20) solution containing 5% non-fat dried milk. In order to check the amount of involucrin as differentiation marker of keratinocytes, primary antibody involucrin (Neomarkers Co.) was diluted at a ratio of about 1/200 to 1.400, and keratin-1 (Covance Co.) was diluted at a ratio of about 1/1000. Reactions were performed overnight at 4° C. As secondary antibody, anti-mouse IgG and anti-rabbit IgG combined with horseradish peroxidase (HRP) was diluted at a ratio of 1:2000. Then, the secondary antibody was bonded to the primary antibody by making them react at room temperature for 1 hour. The membrane was washed with TTBS three times, reacted with an ECL substrate (Amersham Co.) for 1-3 minutes, and exposed to X-ray films.

[2] = test system: RBL-2H3 cell line; assay: Intracellular calcium movement (fura-2 fluorescence); assay type: cell-based; details: RBL-2H3 cells, fura-2, FIGS. 1a to 1d
Procedure: First, the following experiment for calcium movement was performed in order to determine whether the above sphingosine kinase activator compounds activate sphingosine-1-phosphate, so as to cause intracellular calcium movement, which is a typical activity specific to sphingosine-1-phosphate.
The sphingosine kinase activator compounds were determined for capability of inducing intracellular calcium movement by using a RBL-2H3 cell line, which is one of the typical cell lines showing intracellular calcium movement. The cells are cultured by using an RPMI 1640 culture medium and the cells were washed simultaneously with removal of the medium. Then, 10 μM of fura-2/Am and 250 μl M of sulfinpyrazone were added thereto, followed by incubation for 30 minutes. Cell pellets were obtained by centrifugal separation and the cell pellets were dispersed in Ca^2+-free Locke's solution. The dispersion was divided into a unit of 1×10^6 cells for use in treating samples. Next, the cells were introduced into a cuvet of a fluorescence microscope, each sphingosine kinase activator compound was added thereto, and intracellular calcium movement was observed by the fluorescence microscope (RF-5310PC, Spectrofluoro photometer, SHIMADZU). When intracellular calcium ions are detected, they cause fluorescence by bonding with fura-2. Therefore, a degree of calcium movement caused by a sample was evaluated by calculating a difference between the measurement of fura-2 ([…]) bonded with calcium and that of non-bonded fura-2 ([…]).

[3] = test system: fibroblasts; assay: Collagen synthesis in fibroblasts (PICP, collagen measuring kit); assay type: cell-based; details: 72 hours; for Amount of PICP produced in fibroblasts (average ± SEM): non-treated control 47.1 ± 9.7
Procedure: The following experiment was performed by using fibroblasts in order to evaluate the effect of sphingosine kinase activator upon collagen synthesis.
Each of K6PC4, K6PC-5, K6PC-7 and K6PC-9 was dissolved in DMSO at a concentration of 0.3 and 1.0 μg/ml. The solutions were used as samples and analyzed for collagen synthesis after incubation for 72 hours. 72 hours after the treatment of the sample, culture solution was discarded, cells were washed with serum-free DMEM three times, and cells were cultured again by using flesh serum-free DMEM. After incubation, supernatant in each well was combined and analyzed for the amount of PICP (procollagen type I C-peptide) by using a collagen measuring kit. The standard solution contained in the collagen measuring kit was diluted with a sample and absorption at 450 nm was measured to construct a standard concentration curve (see the following Table 2).
To an antibody-coated microtiter plate comprising a primary collagen antibody applied unifomrily thereto, 100 μl of an antibody-POD conjugate solution and the cell supernatant collected as described above were added, followed by incubation at 37° C. for 3 hours, to induce an antigen-antibody reaction. Then, the reaction mixture was subjected to washing and color developing. After the reaction, the reaction mixture developed a yellow color, wherein the yellowness depended on reaction degrees. Also, 96 well plates developing a yellow color were determined at 450 nm by using a microtiter plate reader.

[4] = test system: SD rat; assay: Inhibition of wrinkles and skin aging, UV-induced wrinkle model; assay type: in vivo
Procedure: Generally, continuous exposure to UV causes wrinkles and side effects such as sun burn and skin irritation, resulting in stimulation of skin aging.
To perform the evaluation, an SD rat with three wrinkles is irradiated with UVB under an intensity of 130 mJ/cm^2 at its rear leg […] for 6 weeks. Then, 10 μl (1% in 80% EtOH) of K6PC-5 was applied to the skin of rear leg right after each time of UV irradiation, UV irradiation being performed 5 times per week during 6 weeks from the start day of the UV irradiation. Nine weeks after the treatment, the rat was anesthetized with albutin and the wrinkles were photographed. Additionally, wrinkle-forming portions were replicated by using an exafine hydrophilic vinyl polysiloxane impression material. The replicated images were analyzed quantitively for shadow images by using an image analyzer.

[5] = test system: rabbits; details: rabbit, in vivo
Procedure: (§1) Those tests were performed based on “Toxicity Test Standards for Pharmaceutical Products” disclosed by the Korea Food & Drug Administration.

[6] = test system: guinea pigs; details: guinea pig, in vivo
Procedure: as §1

[7] = test system: human subjects
Procedure: In this example, effects of improving wrinkles were evaluated in 32 subjects (average age: 46.7). During the total period of 8 weeks, a cream containing 1% of K6PC-5 and cream containing no K6PC-5 (control) were applied around both eye rims and then instrumental evaluation was performed. A silicone replica for the eye tail part of a subject was formed, and the replica was irradiated with light at an angle. Then, a shading degree formed by wrinkles in the replica was photographed by a CCD camera, and the image was determined for a wrinkling degree by using a computer image analysis system. More particularly, a program of Skin Visiometer SV 600 available from C+K Co. (Germany) was used for determination, wherein wrinkle parameters are expressed as R1 through R5 values. R1, R2 and R3 represent deep wrinkles and R4 and R5 represent shallow wrinkles.

CCCCCCCC(=O)C(CCCCCC)C(=O)NC(CO)CO (centres unmarked) [K6PC-5, N-(1,3-dihydroxyisopropyl)-2-hexyl-3-oxo-decanamide]
expression of differentiation markers (involucrin, keratin-1) [1]: expressed the differentiation markers | intracellular calcium movement [2]: caused intracellular calcium movement | Amount of PICP produced in fibroblasts (average ± SEM) ([3]; 0.3 μg/ml): 111.2 ± 3.9 | Amount of PICP produced in fibroblasts (average ± SEM) ([3]; 1.0 μg/ml): 96.0 ± 5.6 | collagen synthesis increase as compared to the non-treated control ([3]; fibroblasts, 0.3 or 1.0 μg/ml (concentration not given)): about 2.4 times | inhibition of wrinkles compared to vehicle control ([4]; 10 μl of 1% in 80% EtOH after each UVB irradiation (130 mJ/cm^2), 6 weeks, replica image analysis): about 63% | erythema caused by UV compared to vehicle control ([4]; 10 μl of 1% in 80% EtOH after each UVB irradiation, skin photograph FIG. 4b): decrease in erythema | Ophthalmic mucous membrane irritation test result [5]: No irritation | Skin sensitization test result [6]: No irritation | improvement in the condition of wrinkles around the eye ([7]; cream containing 1% of K6PC-5, 8 weeks, versus control cream, P<0.05 t-test): statistically significant improvement in the condition of wrinkles | skin irritation or hypersensitive reaction (inspection of dermatologists) ([7]; human, in vivo): no skin irritation or hypersensitive reaction

Reference: patent US20060094790A1, “Use of sphingosine kinase activator as skin disease treating agent and method for treating skin diseases using the same” (priority 2004, published 2006)
